The values that follow come from ChEMBL document CHEMBL5543149, “Discovery of Novel Aryl Triazolone Dihydropyridines (ATDPs) Targeting Highly Conserved Residue W229 as Promising HIV-1 NNRTIs” (J Med Chem, 2024).

Structures are written as SMILES.

Usually EC50 stands for the concentration that produces a half-maximal response. The CC50 is the concentration that lowers cell viability or growth by half. A word on the IC50: it is the midpoint of a concentration-inhibition curve.

Data set [1] deals with Human immunodeficiency virus 1. The data set can be described thus: Antiviral activity against wild type HIV-1 IIIB infected in human MT4 cells assessed as protection against virus-induced cytopathic effect incubated for 5 days by MTT assay. Type of data set: functional, organism-based. The conditions noted are these: Human immunodeficiency virus 1, IIIB, MT4, 120 h. A general note: Damage to the host cells serves as the signal in cytopathic effect assays.

The nature of data set [2]: Cytotoxicity against human MT4 cells assessed as reduction in cell viability by MTT assay. It is filed as toxicity, cell-based. In general terms: Formazan colour is commonly taken as a measure of viable cells.
A short description of data set [3]: Selectivity index, ratio of CC50 for cytotoxicity against human MT4 cells assessed as reduction in cell viability by MTT assay to EC50 for antiviral activity against wild type HIV-1 IIIB infected in human MT4 cells assessed as protection against virus-induced cytopathic effect. It is filed as toxicity, cell-based. The conditions noted are these: read-out: Ratio CC50/EC50.

The subject of data set [4] is Human immunodeficiency virus 1. Description: Antiviral activity against NNRTI-resistant HIV-1 harboring L100I mutant infected in human MT4 cells assessed as protection against virus-induced cytopathic effect by MTT assay. It is filed as functional, organism-based. As to conditions: Human immunodeficiency virus 1, MT4.
Data set [5] concerns Human immunodeficiency virus 1. The data set can be described thus: Antiviral activity against NNRTI-resistant HIV-1 harboring K103N mutant infected in human MT4 cells assessed as protection against virus-induced cytopathic effect by MTT assay. It is filed as functional, organism-based. The conditions noted are these: Human immunodeficiency virus 1, MT4.
Data set [6] has as its system Human immunodeficiency virus 1. Description: Antiviral activity against NNRTI-resistant HIV-1 harboring Y181C mutant infected in human MT4 cells assessed as protection against virus-induced cytopathic effect by MTT assay. Type of data set: functional, organism-based. The conditions noted are these: Human immunodeficiency virus 1, MT4.
Data set [7] deals with Human immunodeficiency virus 1. The data set can be described thus: Antiviral activity against NNRTI-resistant HIV-1 harboring Y188L mutant infected in human MT4 cells assessed as protection against virus-induced cytopathic effect by MTT assay. It is filed as functional, organism-based. The conditions noted are these: Human immunodeficiency virus 1, MT4.
In data set [8] the test system is Human immunodeficiency virus 1. The data set can be described thus: Antiviral activity against NNRTI-resistant HIV-1 harboring E138K mutant infected in human MT4 cells assessed as protection against virus-induced cytopathic effect by MTT assay. Type of data set: functional, organism-based. The conditions noted are these: Human immunodeficiency virus 1, MT4.
Data set [9] concerns Human immunodeficiency virus 1. Description: Antiviral activity against NNRTI-resistant HIV-1 harboring RES056 mutant infected in human MT4 cells assessed as protection against virus-induced cytopathic effect by MTT assay. Type of data set: functional, organism-based. The conditions noted are these: Human immunodeficiency virus 1, MT4.
Data set [10] has as its target Human immunodeficiency virus type 1 reverse transcriptase (Human immunodeficiency virus 1, UniProt Q72547). Description: Inhibition of wild type HIV-1 Reverse transcriptase assessed as reduction of biotin-dUTP incorporation into […] using ABTS as substrate preincubated with compound for 1 hr followed by substrate addition in presence of biotin-labeled dNTPs by ELISA analysis. A general note: ELISA stands for enzyme-linked immunosorbent assay.

Regarding `Cn1c(Cn2ccc(C(F)(F)F)c(Oc3cc(Cl)cc(-c4ccc(N)nc4)c3)c2=O)n[nH]c1=O`, the EC50 in [1] was found to be 209 nM. In [2], the CC50 was 32.1 µM. Further, the selectivity ratio in data set [3] turned out to be 154.
Regarding `Cn1c(Cn2ccc(C(F)(F)F)c(Oc3cc(Cl)cc(Br)c3)c2=O)n[nH]c1=O`, the EC50 in [1] worked out at 10 nM; in [4], 12 nM; in data set [5], 22 nM; in [6], 23 nM; in [7], 1340 nM; in data set [8] it was 28 nM. The EC50 in data set [9] was found to be 225 nM. Also, the CC50 in data set [2] stood at 142 µM. Further, in [3], the selectivity ratio was determined as 14200. In addition, the half-inhibitory concentration (IC50) in data set [10] was found to be 30 nM.
In the case of `Cn1c(Cn2ccc(C(F)(F)F)c(Oc3cc(Cl)cc(-c4ccco4)c3)c2=O)n[nH]c1=O`, the EC50 in data set [1] was 190 nM. Also, the CC50 in [2] came out at 59.1 µM. In data set [3], the selectivity ratio is 311.
As for `Cn1c(Cn2ccc(C(F)(F)F)c(Oc3cc(Cl)cc(-c4ccncc4)c3)c2=O)n[nH]c1=O`, the EC50 in [1] was determined as 15 nM; in data set [4], 12 nM; in data set [5] it was 22 nM; in data set [6], 40 nM; in [7], 1320 nM; in data set [8], 39 nM. Moreover, the EC50 in data set [9] was determined as 962 nM. The CC50 in data set [2] was 70.5 µM. Moreover, the selectivity ratio in [3] was found to be 4700. For the same compound, the IC50 in [10] is 80 nM.
Take `Cn1c(Cn2ccc(C(F)(F)F)c(Oc3cc(Cl)cc(C(=O)O)c3)c2=O)n[nH]c1=O`: the EC50 in [1] is 5310 nM. In data set [2], the CC50 is 34.2 µM. For the same compound, the selectivity ratio in [3] amounted to 6.
Regarding `Cn1c(Cn2ccc(C(F)(F)F)c(Oc3cc(Cl)cc(-c4cc5ccccc5s4)c3)c2=O)n[nH]c1=O`, the EC50 turned out to be 12 nM in [1]; 12 nM in data set [4]; 18 nM in [5]; 38 nM in data set [6]; 639 nM in data set [7]; 17 nM in data set [8]. Also, the EC50 in [9] amounted to 185 nM. Moreover, in data set [2], the CC50 is 101 µM. Further, the selectivity ratio in data set [3] came out at 8420. Also, in [10], the IC50 was 40 nM.
With `Cn1c(Cn2ccc(C(F)(F)F)c(Oc3cc(Cl)cc(-c4ccc(C(N)=O)cc4)c3)c2=O)n[nH]c1=O`, the EC50 in data set [1] came out at 261 nM. In addition, the CC50 in data set [2] was found to be 74.2 µM. Further, the selectivity ratio in data set [3] was 284.
`Cn1c(Cn2ccc(C(F)(F)F)c(Oc3cc(Cl)cc(C(N)=O)c3)c2=O)n[nH]c1=O`: in [1], the EC50 turned out to be 2030 nM. Moreover, in data set [2], the 50% cytotoxic concentration (CC50) amounted to 28.5 µM. For the same compound, the selectivity ratio in data set [3] was found to be 14.
Turning to `Cn1c(Cn2ccc(C(F)(F)F)c(Oc3cc(Cl)cc(C#N)c3)c2=O)n[nH]c1=O` [DORAVIRINE], the EC50 was found to be 8 nM in data set [1]; 13 nM in data set [4]; 14 nM in data set [5]; 27 nM in [6]; 2080 nM in data set [7]; 37 nM in [8]. The EC50 in [9] is 128 nM. In [2], the CC50 is over 294 µM.
As to `Cn1c(Cn2ccc(C(F)(F)F)c(Oc3cc(Cl)cc(-c4cncnc4)c3)c2=O)n[nH]c1=O`, the EC50 is 10 nM in data set [1]; 19 nM in data set [4]; 42 nM in data set [5]; 43 nM in [6]; 1480 nM in data set [7]; 25 nM in data set [8]. Also, the EC50 in data set [9] is 91 nM. The CC50 in data set [2] was 64.7 µM. Moreover, the selectivity ratio in data set [3] worked out at 6470. For the same compound, the IC50 in [10] stood at 40 nM.
For `Cn1c(Cn2ccc(C(F)(F)F)c(Oc3cc(Cl)cc(-c4ccc(Cl)cc4)c3)c2=O)n[nH]c1=O`, the EC50 in data set [1] amounted to 11 nM; in data set [4], 14 nM; in [5], 19 nM; in data set [6] it was 30 nM; in [7], 1490 nM; in [8], 28 nM. Also, the EC50 in data set [9] worked out at 401 nM. For the same compound, the CC50 in data set [2] came out at 124 µM. For the same compound, the half-maximal inhibitory concentration (IC50) in data set [10] came out at 20 nM.
Turning to `Cn1c(Cn2ccc(C(F)(F)F)c(Oc3cc(Cl)cc(-c4ccccc4)c3)c2=O)n[nH]c1=O`, in data set [1], the EC50 stood at 370 nM. Further, the CC50 in data set [2] was determined as 187 µM. In data set [3], the selectivity ratio amounted to 505.
In the same order, the values of `Cn1c(Cn2ccc(C(F)(F)F)c(Oc3cc(Cl)cc(-c4cnc5ccccc5c4)c3)c2=O)n[nH]c1=O` are 436 nM, 58.1 µM and 133.
In the same order, the values of `Cn1c(Cn2ccc(C(F)(F)F)c(Oc3cc(Cl)cc(-c4cnc(N)nc4)c3)c2=O)n[nH]c1=O` are 168 nM, 3.24 µM and 19.
Consider `Cn1c(Cn2ccc(C(F)(F)F)c(Oc3cc(Cl)cc(-c4cccs4)c3)c2=O)n[nH]c1=O`, for which, in data set [1], the EC50 stood at 959 nM. Further, in [2], the CC50 turned out to be 45.8 µM. In addition, the selectivity ratio in [3] was found to be 48.
As for `Cn1c(Cn2ccc(C(F)(F)F)c(Oc3cc(Cl)cc(-c4ccc(O)cc4)c3)c2=O)n[nH]c1=O`, the EC50 in data set [1] came out at 361 nM. Further, the CC50 in [2] turned out to be 16.2 µM. Besides, the selectivity ratio in [3] turned out to be 45.
For `Cn1c(Cn2ccc(C(F)(F)F)c(Oc3cc(Cl)cc(-c4ccc(C#N)cc4)c3)c2=O)n[nH]c1=O` the same measures were 47 nM, 5.13 µM and 109.
For `Cn1c(Cn2ccc(C(F)(F)F)c(Oc3cc(Cl)cc(-c4cccnc4)c3)c2=O)n[nH]c1=O` the same measures were 61 nM, 12.8 µM and 210.
Consider `Cn1c(Cn2ccc(C(F)(F)F)c(Oc3cc(Cl)cc(-c4ccsc4)c3)c2=O)n[nH]c1=O`, for which, in data set [1], the EC50 is 41 nM. Moreover, the CC50 in data set [2] amounted to 87.2 µM. Moreover, the selectivity ratio in data set [3] stood at 2130.
On to `Cc1ccc(-c2cc(Cl)cc(Oc3c(C(F)(F)F)ccn(Cc4n[nH]c(=O)n4C)c3=O)c2)cc1`, for which the EC50 in [1] came to 8 nM; in data set [4], 13 nM; in data set [5], 17 nM; in data set [6] it was 29 nM; in data set [7], 1350 nM; in [8], 37 nM. Besides, the EC50 in data set [9] turned out to be 344 nM. Also, in data set [2], the CC50 came out at 94.2 µM. Besides, the selectivity ratio in data set [3] was found to be 11800. Further, in data set [10], the IC50 stood at 30 nM.
As for `Cn1c(Cn2ccc(C(F)(F)F)c(Oc3cc(Cl)cc(-c4ccc(N)cc4)c3)c2=O)n[nH]c1=O`, the EC50 in data set [1] amounted to 158 nM. In [2], the CC50 came to 33.7 µM. Also, in data set [3], the selectivity ratio turned out to be 213.
As to `Cn1c(Cn2ccc(C(F)(F)F)c(Oc3cc(Cl)cc(-c4ccc([N+](=O)[O-])cc4)c3)c2=O)n[nH]c1=O`, in data set [1], the EC50 turned out to be 31 nM. Moreover, the CC50 in [2] is 45.4 µM. Also, the selectivity ratio in [3] came out at 1460.
Consider `Cn1c(Cn2ccc(C(F)(F)F)c(Oc3cc(Cl)cc(-c4ccc(F)cc4)c3)c2=O)n[nH]c1=O`, for which the EC50 in data set [1] worked out at 195 nM. For the same compound, in [2], the CC50 was 31.3 µM. In addition, the selectivity ratio in [3] was 161.
Consider `COC(=O)c1ccc(-c2cc(Cl)cc(Oc3c(C(F)(F)F)ccn(Cc4n[nH]c(=O)n4C)c3=O)c2)cc1`, for which the EC50 in data set [1] worked out at 11 nM; in data set [4], 11 nM; in data set [5], 19 nM; in data set [6] it was 17 nM; in data set [7], 760 nM; in data set [8], 16 nM. The EC50 in data set [9] came to 177 nM. The CC50 in [2] came out at 47.9 µM. Moreover, in [3], the selectivity ratio came to 4360. Moreover, in data set [10], the IC50 came out at 30 nM.
As to `Cn1c(Cn2ccc(C(F)(F)F)c(Oc3cc(Cl)cc(-c4ccoc4)c3)c2=O)n[nH]c1=O`, the EC50 in data set [1] is 280 nM. Moreover, the CC50 in data set [2] is 57.4 µM. In addition, the selectivity ratio in data set [3] turned out to be 205.
